One data set concerns the target T1, FAF1-Caspase 8 complex (Homo sapiens, UniProt Q9UNN5).
T1 construct: host or cells: cell extracts
T1 sequence (Q9UNN5 1-650): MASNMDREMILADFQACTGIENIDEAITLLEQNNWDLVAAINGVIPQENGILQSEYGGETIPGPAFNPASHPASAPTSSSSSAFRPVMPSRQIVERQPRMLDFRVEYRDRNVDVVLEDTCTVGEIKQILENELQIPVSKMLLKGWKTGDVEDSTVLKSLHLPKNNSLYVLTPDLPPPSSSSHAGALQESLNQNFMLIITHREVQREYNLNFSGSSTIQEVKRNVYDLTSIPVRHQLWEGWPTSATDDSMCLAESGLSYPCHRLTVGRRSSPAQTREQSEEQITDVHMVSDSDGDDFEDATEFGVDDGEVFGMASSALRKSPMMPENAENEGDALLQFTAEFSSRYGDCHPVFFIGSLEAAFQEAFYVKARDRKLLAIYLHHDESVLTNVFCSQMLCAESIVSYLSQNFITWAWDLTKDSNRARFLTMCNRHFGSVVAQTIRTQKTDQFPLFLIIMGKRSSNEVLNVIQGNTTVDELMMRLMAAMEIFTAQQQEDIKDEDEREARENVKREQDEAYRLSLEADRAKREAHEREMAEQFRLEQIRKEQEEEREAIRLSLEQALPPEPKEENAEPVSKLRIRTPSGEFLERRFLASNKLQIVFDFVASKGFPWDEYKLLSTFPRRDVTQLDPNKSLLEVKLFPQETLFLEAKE
Nature of the data set: Immunoprecipitation assay of FAF1-Caspase 8 complex formation. The class given is biochemical. The source says: (§1) FAF1 activates apoptotic stress by various stimuli through activation of caspase cascade and necrosis as described (Yu C et al. 2016). The direct targets of FAF1 are caspase 8 and JNK in these two pathways, respectively. And the step of this activation is forming these complexes followed by activation of the downstream targets.
(§2) The inhibition of the complex formation of FAF1-Caspase 8 and FAF1-JNK by KM-819 is confirmed by the usual immunoprecipitation assays using a caspase8 DED antibody and a JNK antibody, and bound and precipitated FAF1 are measured by Western blot using anti-FAF1 antibody. Clearly, KM-819 inhibits the complex formation effectively, about 80% inhibition at 0.1 uM (FIG. 8).

A further data set has as its target T2, FAF1-JNK complex (Homo sapiens, UniProt Q9UNN5).
T2 construct: host or cells: cell extracts
T2 sequence (Q9UNN5 1-650): T1 sequence (Q9UNN5 1-650)
Put plainly: Immunoprecipitation assay of FAF1-JNK complex formation. It is filed as biochemical.
Description: as §1, §2

The subject of the next data set is Caspase 8. Put plainly: Caspase 8 activation measured as Caspase 3 cleavage, Western blot. The class given is cell-based. Particulars: cleavage of Caspase 3. As for the experimental part: (§3) The inhibition of activation of Caspase 8 and JNK by KM-819 is confirmed by assaying the cleavage of the Caspase 8 substrate, Caspase 3, and autophosphorylation of JNK, respectively (FIG. 9). The cells are treated with different concentration of KM-819 as indicated and the levels of cleaved Caspase 3 and autophosphorylated form of JNK are measured by Western blot using anti-Caspase 3 antibody and anti-phospho-JNK antibody, respectively. Clearly, KM-819 inhibits the activity of Caspase 8 and JNK activation (FIG. 9).
For orientation: Immunoblotting shows a protein as a band on a membrane.

The next data set has as its system JNK. Nature of the data set: JNK activation measured as JNK autophosphorylation, Western blot. The class given is cell-based. Particulars: autophosphorylation of JNK. As for the experimental part: as §3
The test system of another data set is LC3 and p62. Nature of the data set: Autophagy promotion: LC3 and p62 levels in SH-SY5Y cells overexpressing FAF1, Western blot. It is filed as cell-based. As for the experimental part: EC50 for autophagy promotion of KM-819 is 1 nM.
For a further data set, the system named is alpha-synuclein. Nature of the data set: Alpha-synuclein level in SH-SY5Y cells co-transfected with FAF1-Flag and alpha-synuclein-GFP, Western blot. The class given is cell-based. As for the experimental part:
To confirm if FAF1 inhibitor decreases the alpha-synuclein level in cells, SH-SY5Y cells are treated with the FAF1 inhibitor KM-819 (KR-88493, U.S. Pat. No. 7,939,550, Yoo S E et al. 2016). Cells are co-transfected with genes encoding FAF1 tagged with Flag and alpha-synuclein tagged with GFP. The alpha-synuclein level is measured by Western blot of cell extracts using anti-GFP antibody. The FAF1 level is measured by Western blot of cell extracts using anti-Flag antibody. Clearly, the level of alpha-synuclein is decreased upon treatment with FAF1 inhibitor (FIG. 11). […] This is much higher efficacy compared to the apoptosis inhibition activity measured in the prior art, 70% inhibition at 10 uM. Note that FAF1 level itself is not changed by treatment with FAF1 inhibitor.

Data set [1] relates to human alpha-synuclein mutant A53T. Put plainly: Alpha-synuclein level in brain tissues of alpha-synuclein A53T transgenic mice after oral KM-819, Western blot. It is filed as in vivo. Particulars: oral 1, 5, 10 mg/kg/day for 9 days, A53T Tg mice.
Data set [2] deals with deoxy-glucose induced hypoxia-mediated apoptosis. Particulars: at 10 uM; U.S. Pat. No. 7,939,550; cited from earlier work.
A further data set deals with FAF1. Nature of the data set: FAF1 siRNA treatment of SH-SY5Y cells cotransfected with the alpha-synuclein gene, Western blot. The class given is cell-based. The source says:
FAF1 expression is attenuated by treating SH-SY5Y cells with siRNA (sequence: GUGUUGUGGCACAAACCAU) and reduction in FAF level is confirmed by Western blot of cell extracts using anti-FAF1 antibody. The cells are cotransfected with the alpha-synuclein gene. The level of alpha-synuclein is monitored by Western blot using anti-alpha-synuclein antibody. Clearly, the level of alpha-synuclein is decreased with FAF1 siRNA treatment (FIG. 5).

We go through 2 compounds from patent US12521371B2, “Modulators of alpha-synuclein” (KAINOS MEDICINE INC., priority 2017, dated 2026).

As to `O=C(CSc1ccc(Br)cc1)Nc1cn(CCc2ccccc2)nc1C(=O)O` [KM-819, 4-[2-(4-bromo-phenylsulfanyl)-acetylamino]-1-phenethyl-1H-pyrazole-3-carboxylic acid], the inhibition at 0.1 µM on FAF1-Caspase 8 complex was around 80%. The compound further displayed an inhibition at 0.1 µM against FAF1-JNK complex of around 80%. The compound further displayed an IC50 in the data set with Caspase 8 of 0.73 µM. Further, the IC50 in the data set with JNK is 0.25 µM. In the data set with LC3 and p62, the LC3 level entry is given as “increases” and the p62 protein level result is listed as “decreases”. Also, the EC50 in the data set on LC3 and p62 (Homo sapiens, read-out: EC50 for autophagy promotion (modulating LC-3 and p62 levels)) stood at 0.001 µM. The EC50 in the data set with alpha-synuclein (Homo sapiens, SH-SY5Y, as stated in description b51, read-out: EC50 for decreasing the amount of alpha-synuclein in cells) was determined as 0.02 µM. Also, the inhibition at 10 µM with alpha-synuclein (Homo sapiens, SH-SY5Y, at 10 uM) was above 95%. Besides, the IC50 with alpha-synuclein (Homo sapiens, SH-SY5Y cells, FAF1-Flag and alpha-synuclein-GFP, read-out: IC50 for decrease of alpha-synuclein level) stood at 0.02 µM. In addition, the FAF1 level entry in the data set with alpha-synuclein (SH-SY5Y cells, anti-Flag Western blot) was “not changed”. In data set [1], the “FAF1 level in midbrain” value is “not changed”, the “level of S129 phosphorylated alpha-synuclein in midbrain” value is “decreased”, the “level of alpha-synuclein in cerebellum” value is given as “decreased” and the “level of alpha-synuclein in cortex” value is “decreased”. Further, in data set [1], the “level of alpha-synuclein in hippocampus” value is listed as “decreased”, the “level of alpha-synuclein in midbrain” value is reported as “decreased” and the “level of alpha-synuclein in striatum” value is listed as “decreased”. In data set [2], the inhibition of apoptosis is reported as 70%.
For “FAF1 siRNA: siRNA (sequence: GUGUUGUGGCACAAACCAU) that attenuates FAF1 expression in SH-SY5Y cells (chemistry not given here)”, the level of alpha-synuclein result in the data set with FAF1 (SH-SY5Y cells cotransfected with alpha-synuclein gene) is “decreased”. For the same compound, in the data set on FAF1 (SH-SY5Y cells, anti-FAF1 Western blot), the FAF1 expression result was “attenuated”.

For orientation: inhibition means the percentage by which the read-out fell short of the control. One may read the IC50 as the concentration at which inhibition is half-maximal. In general, EC50 refers to the concentration that produces a half-maximal response.
